Experimental data published in patent US20120010206A1, “IMIDAZOLOPYRIDINE COMPOUNDS USEFUL FOR THE TREATMENT OF DEGENERATIVE AND INFLAMMATORY DISEASES” (priority 2006, published 2012).

Tests used:
[1] = test system: MMP1 expression from activated SFs (RASF); test: MMP assay: MMP1 expression (ELISA) by TNF-α-triggered RASFs; format: cell-based; settings: RASF triggered with TNFα, MMP1 ELISA after 48 hrs, semi-quantitative score
Protocol: A 384-well format ELISA for measurement of MMP1 is developed. Various primary antibodies are tested, as well as various ELISA protocols. The following protocol is developed and validated to measure MMP1 levels in SF supernatant in 384 well plates: white Lumitrac 600 384 well plates (Greiner) are coated with 2 μg/mL anti-MMP1 antibody MAB1346 (Chemicon). The antibody is diluted in buffer 40 (1.21 g Tris base (Sigma), 0.58 g NaCl (Calbiochem) and 5 mL 10% NaN3 (Sigma) in 1 L milliQ water and adjusted to pH 8.5). After overnight incubation at 4° C., plates are washed with PBS (80 g NaCl, 2 g KCl (Sigma), 11.5 g Na2HPO4.7H2O and 2 g KH2PO4 in 10 L milliQ; pH 7.4) and blocked with 100 μL/well Casein buffer (2% Casein (VWR International) in PBS). Next day, casein buffer is removed from ELISA plates and replaced by 50 μL/well EC buffer (4 g casein, 2.13 g Na2HPO4 (Sigma), 2 g bovine albumin (Sigma), 0.69 g NaH2PO4.H2O (Sigma), 0.5 g CHAPS (Roche), 23.3 g NaCl, 4 mL 0.5 M EDTA pH 8 (Invitrogen), 5 mL 10% NaN3 in 1 L milliQ and adjusted to pH 7.0). 0.25 mM DTT (Sigma) is added to the thawed sample plates. After removal of the EC buffer, 20 μL of sample is transferred to the ELISA plates. After overnight incubation at 4° C. plates are washed twice with PBS and once with PBST (PBS with 0.05% Tween-20 (Sigma)) and incubated with 35 μL/well biotinylated anti-MMP1 antibody solution (R&D). This secondary antibody is diluted in buffer C (0.82 g NaH2PO4.H2O, 4.82 g Na2HPO4, 46.6 g NaCl, 20 g bovine albumin and 4 ml, 0.5M EDTA pH 8 in 2 L milliQ and adjusted to pH 7.0) at a concentration of 5 μg/mL. After 2 h of incubation at RT, plates are washed as described above and incubated with 50 μL/well streptavidin-HRP conjugate (Biosource). Streptavidin-HRP conjugate is diluted in buffer C at a concentration of 0.25 μg/mL. After 45 min, plates are washed as described above and incubated for 5 min with 50 μL/well BM Chem ELISA Substrate (Roche). Readout is performed on the Luminoscan Ascent Luminometer (Labsystems) with an integration time of 200 msec or with an Envision reader (Perkin Elmer).
SFs were acquired at passage 1 from a commercial supplier (Cell applications, Inc.). SFs are cultured in DMEM supplemented with 10% heat-inactivated FBS, 1× penicillin/streptomycin (Invitrogen) at 37° C., 10% CO2 until passage 6. Aliquots of the cells are frozen and cryopreserved in liquid nitrogen. Starting from a cryopreserved aliquot, cells are further expanded by sub-culturing cells at 1/3 ratio every week. Cells between passage 10 and 12 are routinely used in compound testing according to the following protocol.
Starting from the compound master stocks (all at 10 mM concentration in 100% DMSO) a 3-fold serial dilution is made in 96-well plates in 100% DMSO. Then, plates are further diluted 45-fold in M199 medium supplemented with 1% heat-inactivated FBS to obtain a intermediate work stock.
At day 1, RASFs are seeded in 96 well plates (flat bottom, tissue culture treated, Greiner) at a density of 3000 cells/well in complete synovial growth medium (Cell Applications). Day 5, the medium is completely removed from the cells, and replaced by 81 μL of M199 medium supplemented with 1% heat-inactivated FBS followed by addition of 10 μL compound out of the intermediate work stock. After an incubation period of 90 minutes, which allows the compounds to equilibrate and enter the cells, cells are stimulated with either TNF-α or ‘complex trigger’. TNF-α trigger is added in a volume of […] to obtain final concentration of 10 ng/mL. For that, TNF-α stock (PeproTech) at 10 μg/mL was diluted to 100 ng/mL TNF-α in M199 medium supplemented with 1% FBS. ‘Complex trigger’ mix is added in a volume of 20 μL to obtain a final concentration of 12.5%. For that, ‘complex trigger’ mix, is diluted to 80% with M199 medium supplemented with 1% FBS. […]

TAK1-TAB1 fusion protein = target: T1, TAK1-TAB1 fusion protein (Homo sapiens, UniProt O43318); test: In vitro TAK1 kinase assay (33P-ATP, casein substrate); format: biochemical; settings: semi-quantitative score, at least two independent experiments
T1 construct: purchased Upstate 14-600
T1 sequence (O43318 with tags, fused parts or gaps limits assumed): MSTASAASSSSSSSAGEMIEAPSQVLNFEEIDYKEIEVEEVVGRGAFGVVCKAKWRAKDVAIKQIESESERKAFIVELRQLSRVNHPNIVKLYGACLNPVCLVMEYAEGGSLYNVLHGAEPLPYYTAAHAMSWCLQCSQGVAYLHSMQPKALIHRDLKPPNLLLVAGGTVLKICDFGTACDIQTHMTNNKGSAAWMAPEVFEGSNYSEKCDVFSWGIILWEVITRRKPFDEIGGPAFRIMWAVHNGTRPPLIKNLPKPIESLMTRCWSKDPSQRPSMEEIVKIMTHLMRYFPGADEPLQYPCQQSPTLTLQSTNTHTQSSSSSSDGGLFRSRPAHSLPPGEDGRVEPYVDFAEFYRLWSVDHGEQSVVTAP
Procedure, shortened: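 Radiometric assay with active TAK1-TAB1 fusion protein (0.5 mU), 0.1 mg/mL casein, ATP at 5 µM plus [33P]-γ-ATP, in 10 mM MOPS pH 7.0, 1 mM EDTA. Reactions ran 90 min at 30 °C, were stopped with phosphoric acid and filter-counted; percent inhibition from ≥2 experiments gave semi-quantitative potency scores.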

Compound	EC50 [1] [nM]	IC50 (TAK1-TAB1 fusion protein) [nM]
Cc1cc(CNC(=O)c2ccc(Nc3ccc(-c4ccc5c(c4)CNC5=O)n4ccnc34)cc2)no1 [Compound 37, N-((5-methylisoxazol-3-yl)methyl)-4-(5-(1-oxoisoindolin-5-yl)imidazo[1,2-a]pyridin-8-ylamino)benzamide]	1000 to 3000	1000 to 3000
COCCN(C)C(=O)c1ccc(Nc2ccc(-c3ccc4c(c3)CNC4=O)n3ccnc23)cc1 [Compound 38, N-(2-methoxyethyl)-N-methyl-4-(5-(1-oxoisoindolin-5-yl)imidazo[1,2-a]pyridin-8-ylamino)benzamide]	> 3000	101 to 1000
CN(C)C1CCN(C(=O)c2ccc(Nc3ccc(-c4ccc5c(c4)CNC5=O)n4ccnc34)cc2)C1 (stereo not drawn) [Compound 39, 5-(8-(4-(3-(dimethylamino)pyrrolidine-1-carbonyl)phenyl-amino)imidazo[1,2-a]pyridin-5-yl)isoindolin-1-one]	> 3000	< 100
CCOCCN1CCN(C(=O)c2ccc(Nc3ccc(-c4ccc5c(c4)CNC5=O)n4ccnc34)cc2)CC1 [Compound 40, 5-(8-(4-(4-(2-ethoxyethyl)piper-azine-1-carbonyl)phenyl-amino)imidazo[1,2-a]pyridin-5-yl)isoindolin-1-one]	> 3000	101 to 1000
CNC(=O)C1CCN(C(=O)c2ccc(Nc3ccc(-c4ccc5c(c4)CNC5=O)n4ccnc34)cc2)CC1 [Compound 41, N-methyl-1-(4-(5-(1-oxoisoindolin-5-yl)imidazo[1,2-a]pyridin-8-ylamino)benzoyl) piperidine-4-carboxamide]	> 3000	101 to 1000
CC(=O)N(C)C1CCN(C(=O)c2ccc(Nc3ccc(-c4ccc5c(c4)CNC5=O)n4ccnc34)cc2)C1 (stereo not drawn) [Compound 42, N-methyl-N-(1-(4-(5-(1-oxoisoindolin-5-yl)imidazo[1,2-a]pyridin-8-ylamino)benzoyl)pyrrolidin-3-yl)acetamide]	> 3000	101 to 1000
O=C(NCCN1CCOCC1)c1ccc(Nc2ccc(-c3ccc4c(c3)CNC4=O)n3ccnc23)cc1 [Compound 43, N-(2-morpholinoethyl)-4-(5-(1-oxoisoindolin-5-yl)imidazo[1,2-a]pyridin-8-ylamino)benzamide]	> 3000	101 to 1000
O=C1NCc2cc(-c3ccc(Nc4ccc(C(=O)N5CCC(N6CCCCC6)CC5)cc4)c4nccn34)ccc21 [Compound 46, 5-(8-(4-(1,4′-bipiperidine-1′-carbonyl)phenylamino)imidazo[1,2-a]pyridin-5-yl)isoindolin-1-one]	> 3000	< 100
CCN(C)CCN(CC)C(=O)c1ccc(Nc2ccc(-c3ccc4c(c3)CNC4=O)n3ccnc23)cc1 [Compound 47, N-ethyl-N-(2-(ethyl(methyl)amino)ethyl)-4-(5-(1-oxoisoindolin-5-yl)imidazo[1,2-a]pyridin-8-ylamino)benzamide]	> 3000	< 100
CC(C)N1CCN(C(=O)c2ccc(Nc3ccc(-c4ccc5c(c4)CNC5=O)n4ccnc34)cc2)CC1 [Compound 48, 5-(8-(4-(4-isopropylpiperazine-1-carbonyl)phenylamino)imidazo [1,2-a]pyridin-5-yl)isoindolin-1-one]	> 3000	< 100
CCN1CCC[C@H]1CNC(=O)c1ccc(Nc2ccc(-c3ccc4c(c3)CNC4=O)n3ccnc23)cc1 [Compound 49, (S)-N-((1-ethylpyrrolidin-2-yl)methyl)-4-(5-(1-oxoisoindolin-5-yl)imidazo[1,2-a]pyridin-8-ylamino)benzamide]	> 3000	< 100
CN(C)CCCNC(=O)c1ccc(Nc2ccc(-c3ccc4c(c3)CNC4=O)n3ccnc23)cc1 [Compound 50, -(3-(dimethylamino)propyl)-4-(5-(1-oxoisoindolin-5-yl)imidazo[1,2-a]pyridin-8-ylamino)benzamide]	> 3000	101 to 1000
